Patent US9012505B2, “Antimicrobial compounds and uses thereof” (priority 2010, dated 2015)
“Also recorded” adds a separate entry of the source.

Legend:
[1] = system: C. albicans strain SC5314; experiment: Candida albicans germ tube formation (morphological transition); type: cell-based; settings: 37° C., 3 h, solvent control about 70%
Experimental: C. albicans strain SC5314 was incubated at 28° C. for overnight with shaking in the GMM medium consisting of 6.7 g of Bacto yeast nitrogen base (Difco) and 0.2% glucose (pH 7.2). C. albicans cells proliferate in yeast form under these conditions. The yeast cells were then diluted 20-fold in fresh GMM medium with or without MDEA. The cells were induced for 3 h at 37° C. Visualization and quantification of germ tube formation were performed using a phase contrast microscope (Olympus BX50) by counting about 400 C. albicans cells. The experiment was repeated twice, and the imaging was done with an Olympus DP70 digital camera.
Candida albicans is a fungal pathogen responsible for various forms of candiasis ranging from mucosal damages to serious systemic infections. It normally exists as a yeast but can form germ tubes (mycelia) under certain environmental conditions including human body temperature and serum. This morphological transition ability is critical for the fungal pathogen to establish infections. Mutants defective in morphological transitions are avirulent and unable to cause infections (Lo et al., 1997; Braun et al., 2000; Saville et al., 2003; Zheng et al., 2003). […] MDEA represents another structurally different unsaturated fatty acid. To determine its potential inhibitory activity MDEA was added to medium at various concentrations before inoculation of the fungal yeast cells, using methanol as a solvent control. After incubation at 37° C. for 3 h, about 70% of C. albicans cells in solvent control formed germ tubes (FIG. 4). In contrast, less than 30% and 5% of yeast cells could germinate in the presence of 0.5 or 5 μM of MDEA (FIG. 4). When the concentration was increased to 25 μM, the germ tube formation was reduced to 0.17% (FIG. 4).

exsC = experiment: Semi-quantitative RT-PCR of T3SS gene expression; type: cell-based, Pseudomonas aeruginosa; settings: MDEA treatment, concentration not given
Experimental: Bacteria were grown in LB medium supplemented with 10 mM NTA at 37° C. with shaking (250 rpm) overnight were diluted to an OD600 of 0.05 in fresh LB medium and grown under the same conditions to an OD600 of 1.5. RNA samples were isolated using the RNeasy mini kit according to the manufacturer's instructions (Qiagen). The concentration and purity of RNA were determined by spectrometry and agarose gel electrophoresis. RT-PCR analysis was performed using the One-step RT-PCR kit according to the manufacturer's instructions (Qiagen) with the primer pairs RT-C—F/RT-C—R ((5′-[…] (SEQ ID NO: 5), 5′-[…] (SEQ ID NO: 6)).
The effect of MDEA on inhibition of T3SS was further analyzed by semi-quantitative RT-PCR. […] The data are consistent with the results based on the T3SS reporter (FIG. 3a).

[2] = system: PexsCEBA-lacZ (T3SS reporter strain); experiment: T3SS reporter PexsCEBA-lacZ β-galactosidase activity; type: cell-based, Pseudomonas aeruginosa; settings: LB medium with 10 mM NTA, OD600 about 1.5
Text: The promoter of exsCEBA was amplified by PCR using the primer pairs pC-F/pC-R ((5′-[…] (SEQ ID NO: 3)/5′-ggggcgcctcctaaagctc (SEQ ID NO: 4)), and cloned into the integration vector mini-CTX-lacZ (Zhou et al., 2007; Hoang et al., 2000; Becher and Schweizer, 2000). The construct was introduced into E. coli S17-1(λpir) and then integrated into the chromosome of P. aeruginosa as described previously (Hoang et al., 2000). The P. aeruginosa transconjugants were then selected on LB agar plates containing 100 μg/ml tetracycline and used as the T3SS reporter strain.
For determination of the inhibitory activity against T3SS, MDEA was added to the LB medium supplemented with 10 mM NTA before inoculation of the T3SS reporter strain. After incubation at 37° C. till OD600 reached about 1.5, the bacterial cells were harvested by centrifugation to measure the β-galactosidase activities following the method previously described (Jeffrey, 1992).
Type III secretion system (T3SS) is a major virulence determinant conserved in many Gram-negative bacterial pathogens. To test the ability of MDEA on regulation of T3SS gene expression in Pseudomonas aeruginosa, the T3SS reporter construct PexsCEBA-lacZ (Zhou et al., 2007) was used. The promoter PexsCEBA directs the expression of the T3SS master regulator ExsA, which positively controls the expression of all T3SS genes in P. aeruginosa (Yahr and Wolfgang, 2006; Frank, 1997).

[3] = system: Xanthomonas campestris strain 8004dF; experiment: Biofilm assay (Xcc biofilm dispersal, cell aggregates by phase contrast microscopy); type: cell-based; settings: YEB medium
Experimental: For analysis of biofilm formation, a single colony of Xanthomonas campestris strain 8004dF (He et al., 2006) was inoculated and grown overnight at 28° C. in 5 ml of YEB medium. The bacterial cells in culture were visualized with a phase contrast microscope (Olympus BX50) and photographs were taken with an Olympus DP70 digital camera.
Given its structural similarity to DSF (Wang et al., 2004), which is known to regulate biofilm dispersal (Dow et al., 2003; He et al., 2006), MDEA was tested for its ability to promote Xcc biofilm dispersion. The Xcc DSF mutant ΔrpfF, which formed extensive cell aggregates (biofilm) in YEB medium (FIG. 2a), was used in this assay.

CC(C)CCCCC=CC/C=C\C(=O)O [MDEA, cis-11-methyldodeca-2,5-dienoic acid]
yeast cells that germinate (germ tube formation) ([1]; 0.5 μM MDEA): less than 30%
yeast cells that germinate (germ tube formation) ([1]; 5 μM MDEA): < 5%
germ tube formation ([1]; 25 μM MDEA): 0.17%
reduction in transcriptional expression of exsC (exsC): about 60%
reduction of PexsCEBA-lacZ activity ([2]; 5 μM MDEA): 64.1%
reduction of PexsCEBA-lacZ activity ([2]; 10 μM MDEA): 68.5%
reduction of PexsCEBA-lacZ activity ([2]; 25 μM MDEA): 74.4%
Effect on cell aggregates (biofilm) of Xcc DSF-deficient mutant ([3]; 1 μM MDEA): inhibited 8004dF biofilm formation; also recorded: eliminated most of the cell aggregates
Effect on cell aggregates (biofilm) of Xcc DSF-deficient mutant ([3]; 5 μM MDEA): inhibited 8004dF biofilm formation; also recorded: all the cell aggregates disappeared
